Experimental data reported in ChEMBL document CHEMBL1154277, “Discovery of N-substituted pyridinones as potent and selective inhibitors of p38 kinase” (Bioorg Med Chem Lett, 2009).

Tests used:
[1] = biological target: Ephrin type-A receptor 8 (Homo sapiens) (UniProt P29322); assay: Inhibition of EPHA8 at 10 uM
[2] = biological target: Dual specificity tyrosine-phosphorylation-regulated kinase 1B (Homo sapiens) (UniProt Q9Y463); assay: Inhibition of DYRK1B at 10 uM
[3] = biological target: Tyrosine-protein kinase JAK3 (Homo sapiens) (UniProt P52333); assay: Inhibition of JAK3 at 10 uM
[4] = biological target: Serine/threonine-protein kinase PAK 1 (Homo sapiens) (UniProt Q13153); assay: Inhibition of PAK1 at 10 uM
[5] = system: Fibroblast growth factor receptor 3 (Homo sapiens), P22607 [K650E]; assay: Inhibition of FGFR3 K650E (mutant) at 10 uM
[6] = biological target: Serine/threonine-protein kinase PLK3 (Homo sapiens) (UniProt Q9H4B4); assay: Inhibition of PLK3 at 10 uM
[7] = biological target: Cyclin-dependent kinase 2/cyclin A (Homo sapiens) (UniProt P24941+P20248+P78396); assay: Inhibition of CDK2/cyclinA at 10 uM; type: protein-complex assay
[8] = biological target: Serine/threonine-protein kinase DCLK2 (Homo sapiens) (UniProt Q8N568); assay: Inhibition of DCK2 at 10 uM
Sequence of Serine/threonine-protein kinase DCLK2 (Homo sapiens) (Q8N568 whole entry): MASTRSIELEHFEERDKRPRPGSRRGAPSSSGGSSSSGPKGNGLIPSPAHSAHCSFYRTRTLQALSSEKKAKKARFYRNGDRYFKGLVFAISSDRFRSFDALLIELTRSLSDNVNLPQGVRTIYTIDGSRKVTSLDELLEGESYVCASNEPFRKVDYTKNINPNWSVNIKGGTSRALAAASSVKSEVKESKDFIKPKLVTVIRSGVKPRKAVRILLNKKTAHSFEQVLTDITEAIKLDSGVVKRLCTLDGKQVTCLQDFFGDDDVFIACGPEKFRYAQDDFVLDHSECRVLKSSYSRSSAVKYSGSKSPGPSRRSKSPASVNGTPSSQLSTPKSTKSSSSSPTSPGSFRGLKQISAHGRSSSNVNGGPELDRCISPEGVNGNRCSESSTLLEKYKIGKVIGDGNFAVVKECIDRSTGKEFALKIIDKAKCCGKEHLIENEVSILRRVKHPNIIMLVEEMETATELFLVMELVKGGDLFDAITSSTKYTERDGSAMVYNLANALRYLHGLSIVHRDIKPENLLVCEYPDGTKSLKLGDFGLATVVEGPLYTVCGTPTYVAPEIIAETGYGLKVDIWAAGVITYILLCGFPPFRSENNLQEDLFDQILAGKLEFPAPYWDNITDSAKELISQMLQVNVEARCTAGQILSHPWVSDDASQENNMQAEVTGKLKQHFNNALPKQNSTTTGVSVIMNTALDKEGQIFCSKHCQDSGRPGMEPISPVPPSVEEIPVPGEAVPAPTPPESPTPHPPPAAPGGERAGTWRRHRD

[9] = biological target: Cyclin-dependent kinase 1/cyclin B1 (Homo sapiens) (UniProt P06493+P14635); assay: Inhibition of CDK1/cyclin B at 10 uM; type: protein-complex assay
[10] = biological target: Serine/threonine-protein kinase D2 (Homo sapiens) (UniProt Q9BZL6); assay: Inhibition of PKD2 at 10 uM
[11] = system: Tyrosine-protein kinase ABL1 (Homo sapiens), P00519 [Y253F]; assay: Inhibition of ABL1 Y253F (mutant) at 10 uM
[12] = biological target: ALK tyrosine kinase receptor (Homo sapiens) (UniProt Q9UM73); assay: Inhibition of ALK at 10 uM
[13] = system: Proto-oncogene tyrosine-protein kinase receptor Ret (Homo sapiens), P07949 [Y791F]; assay: Inhibition of RET Y791F (mutant) at 10 uM
Sequence of Proto-oncogene tyrosine-protein kinase receptor Ret (Homo sapiens), P07949 [Y791F] (P07949 whole entry Y791F): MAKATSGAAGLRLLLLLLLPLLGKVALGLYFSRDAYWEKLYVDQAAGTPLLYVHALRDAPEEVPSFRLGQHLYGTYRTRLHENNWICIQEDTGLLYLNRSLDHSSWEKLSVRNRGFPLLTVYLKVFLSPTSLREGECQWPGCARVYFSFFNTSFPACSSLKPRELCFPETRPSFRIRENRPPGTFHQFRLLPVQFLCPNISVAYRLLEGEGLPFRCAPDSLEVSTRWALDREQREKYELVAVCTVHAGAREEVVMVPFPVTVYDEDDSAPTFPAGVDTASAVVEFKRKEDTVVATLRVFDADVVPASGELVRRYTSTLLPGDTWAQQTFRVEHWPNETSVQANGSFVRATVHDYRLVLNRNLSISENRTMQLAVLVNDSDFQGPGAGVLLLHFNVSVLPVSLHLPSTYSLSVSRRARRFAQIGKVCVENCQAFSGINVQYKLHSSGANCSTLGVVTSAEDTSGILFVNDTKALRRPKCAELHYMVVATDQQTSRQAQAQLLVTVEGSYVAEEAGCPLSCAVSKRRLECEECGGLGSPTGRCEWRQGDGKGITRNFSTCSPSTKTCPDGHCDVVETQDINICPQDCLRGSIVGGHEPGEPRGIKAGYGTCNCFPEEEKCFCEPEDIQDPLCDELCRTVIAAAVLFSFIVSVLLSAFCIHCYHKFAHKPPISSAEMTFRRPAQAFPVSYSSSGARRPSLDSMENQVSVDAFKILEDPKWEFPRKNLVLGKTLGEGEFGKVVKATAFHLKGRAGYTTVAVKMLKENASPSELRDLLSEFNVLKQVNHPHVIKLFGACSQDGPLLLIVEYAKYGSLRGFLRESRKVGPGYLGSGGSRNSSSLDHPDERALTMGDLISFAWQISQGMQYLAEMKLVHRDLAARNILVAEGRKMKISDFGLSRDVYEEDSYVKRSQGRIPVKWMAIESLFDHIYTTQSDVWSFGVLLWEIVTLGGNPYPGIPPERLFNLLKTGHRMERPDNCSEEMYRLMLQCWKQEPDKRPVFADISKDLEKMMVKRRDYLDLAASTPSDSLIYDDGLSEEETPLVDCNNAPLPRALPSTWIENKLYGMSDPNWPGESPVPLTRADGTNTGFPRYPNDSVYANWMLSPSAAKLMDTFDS

[14] = Half life in po dosed Sprague-Dawley rat; type: ADME, organism-based; conditions: in vivo
[15] = biological target: G protein-coupled receptor kinase 5 (Homo sapiens) (UniProt P34947); assay: Inhibition of GRK5 at 10 uM
[16] = system: Proto-oncogene tyrosine-protein kinase receptor Ret (Homo sapiens), P07949 [V804L]; assay: Inhibition of RET V804L (mutant) at 10 uM
Sequence of Proto-oncogene tyrosine-protein kinase receptor Ret (Homo sapiens), P07949 [V804L] (P07949 whole entry V804L): as the sequence (P07949 whole entry Y791F) above, with F791Y, V804L counted along it

[17] = biological target: Tyrosine-protein kinase Blk (Homo sapiens) (UniProt P51451); assay: Inhibition of BLK at 10 uM
Sequence of Tyrosine-protein kinase Blk (Homo sapiens) (P51451 2-505 limits assumed): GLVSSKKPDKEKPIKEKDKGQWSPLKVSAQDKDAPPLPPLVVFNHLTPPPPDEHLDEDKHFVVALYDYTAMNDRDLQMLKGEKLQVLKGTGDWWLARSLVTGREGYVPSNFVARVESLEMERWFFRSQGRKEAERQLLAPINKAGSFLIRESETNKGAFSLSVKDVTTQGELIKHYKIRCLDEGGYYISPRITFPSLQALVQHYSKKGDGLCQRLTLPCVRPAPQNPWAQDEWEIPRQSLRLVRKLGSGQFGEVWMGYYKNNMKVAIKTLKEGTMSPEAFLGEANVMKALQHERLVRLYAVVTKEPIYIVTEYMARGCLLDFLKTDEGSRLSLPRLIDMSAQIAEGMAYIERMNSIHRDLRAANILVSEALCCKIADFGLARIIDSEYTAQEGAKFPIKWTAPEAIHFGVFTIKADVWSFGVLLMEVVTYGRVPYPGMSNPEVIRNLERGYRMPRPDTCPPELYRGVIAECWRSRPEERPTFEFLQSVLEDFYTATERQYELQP

[18] = biological target: Vascular endothelial growth factor receptor 2 (Homo sapiens) (UniProt P35968); assay: Inhibition of KDR at 10 uM
PBMC = assay: Antiinflammatory activity against human PBMC assessed as inhibition of LPS-induced TNFalpha release; type: functional, cell-based
[19] = biological target: Tyrosine-protein kinase ABL1 (Homo sapiens) (UniProt P00519); assay: Inhibition of ABL1 at 10 uM
[20] = biological target: Calcium/calmodulin-dependent protein kinase type 1D (Homo sapiens) (UniProt Q8IU85); assay: Inhibition of CAMK1delta at 10 uM
[21] = biological target: Ribosomal protein S6 kinase alpha-1 (Homo sapiens) (UniProt Q15418); assay: Inhibition of RSK1 at 10 uM
[22] = biological target: Mitogen-activated protein kinase kinase kinase 9 (Homo sapiens) (UniProt P80192); assay: Inhibition of MLK1 at 10 uM
[23] = biological target: Fibroblast growth factor receptor 4 (Homo sapiens) (UniProt P22455); assay: Inhibition of FGFR4 at 10 uM
[24] = biological target: Tyrosine-protein kinase FRK (Homo sapiens) (UniProt P42685); assay: Inhibition of FRK at 10 uM
Sequence of Tyrosine-protein kinase FRK (Homo sapiens) (P42685 whole entry): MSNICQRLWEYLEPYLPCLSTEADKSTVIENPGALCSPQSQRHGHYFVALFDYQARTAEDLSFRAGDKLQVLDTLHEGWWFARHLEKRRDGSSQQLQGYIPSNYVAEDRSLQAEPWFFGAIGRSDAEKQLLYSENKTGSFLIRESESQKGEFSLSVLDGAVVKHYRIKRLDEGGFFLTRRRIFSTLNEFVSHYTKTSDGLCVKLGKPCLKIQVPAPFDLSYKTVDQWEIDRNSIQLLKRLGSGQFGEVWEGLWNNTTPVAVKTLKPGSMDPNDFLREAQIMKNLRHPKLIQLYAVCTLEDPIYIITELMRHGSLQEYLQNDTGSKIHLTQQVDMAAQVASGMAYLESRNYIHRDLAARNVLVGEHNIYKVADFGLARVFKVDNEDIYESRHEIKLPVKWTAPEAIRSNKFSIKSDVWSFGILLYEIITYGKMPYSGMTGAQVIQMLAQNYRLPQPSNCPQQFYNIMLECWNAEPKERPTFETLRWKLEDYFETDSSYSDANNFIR

[25] = biological target: Protein kinase C beta type (Homo sapiens) (UniProt P05771); assay: Inhibition of PKCbeta1 at 10 uM
[26] = biological target: Protein-tyrosine kinase 2-beta (Homo sapiens) (UniProt Q14289); assay: Inhibition of FAK2 at 10 uM
Sequence of Protein-tyrosine kinase 2-beta (Homo sapiens) (Q14289 whole entry, looked up): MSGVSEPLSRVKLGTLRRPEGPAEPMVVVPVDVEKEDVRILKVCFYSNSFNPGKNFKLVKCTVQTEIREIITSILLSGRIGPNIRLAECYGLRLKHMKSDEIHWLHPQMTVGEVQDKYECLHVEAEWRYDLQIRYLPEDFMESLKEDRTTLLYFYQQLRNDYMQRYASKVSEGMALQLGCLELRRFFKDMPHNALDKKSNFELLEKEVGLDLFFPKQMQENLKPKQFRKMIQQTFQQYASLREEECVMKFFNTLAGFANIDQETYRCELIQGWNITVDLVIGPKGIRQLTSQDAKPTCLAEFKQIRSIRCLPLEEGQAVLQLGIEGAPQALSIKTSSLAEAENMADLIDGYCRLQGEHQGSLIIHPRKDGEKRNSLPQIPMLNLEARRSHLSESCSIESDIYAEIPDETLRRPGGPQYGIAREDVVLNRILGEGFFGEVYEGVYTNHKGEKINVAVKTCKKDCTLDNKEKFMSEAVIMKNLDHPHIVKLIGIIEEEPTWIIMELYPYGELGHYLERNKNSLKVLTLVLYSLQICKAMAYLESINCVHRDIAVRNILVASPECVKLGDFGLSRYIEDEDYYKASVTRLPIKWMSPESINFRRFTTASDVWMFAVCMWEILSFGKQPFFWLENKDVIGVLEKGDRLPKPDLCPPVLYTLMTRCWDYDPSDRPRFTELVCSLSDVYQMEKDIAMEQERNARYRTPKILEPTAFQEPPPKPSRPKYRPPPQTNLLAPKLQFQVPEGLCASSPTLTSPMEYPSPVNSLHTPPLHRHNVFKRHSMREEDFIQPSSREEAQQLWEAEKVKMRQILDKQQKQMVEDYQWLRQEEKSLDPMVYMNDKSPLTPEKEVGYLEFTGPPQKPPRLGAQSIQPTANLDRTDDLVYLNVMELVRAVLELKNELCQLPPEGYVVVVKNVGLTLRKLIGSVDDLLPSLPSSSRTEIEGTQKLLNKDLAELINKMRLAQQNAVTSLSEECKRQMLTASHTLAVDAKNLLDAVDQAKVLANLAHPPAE

[27] = biological target: Muscle, skeletal receptor tyrosine-protein kinase (Homo sapiens) (UniProt O15146); assay: Inhibition of MUSK at 10 uM
[28] = biological target: RAF proto-oncogene serine/threonine-protein kinase (Homo sapiens) (UniProt P04049); assay: Inhibition of cRAF at 10 uM
[29] = biological target: Phosphorylase b kinase gamma catalytic chain, liver/testis isoform (Homo sapiens) (UniProt P15735); assay: Inhibition of PHKgamma2 at 10 uM
[30] = biological target: Maternal embryonic leucine zipper kinase (Homo sapiens) (UniProt Q14680); assay: Inhibition of MELK at 10 uM
[31] = biological target: Serine/threonine-protein kinase haspin (Homo sapiens) (UniProt Q8TF76); assay: Inhibition of GSG2 at 10 uM
[32] = biological target: Leucine-rich repeat serine/threonine-protein kinase 2 (Homo sapiens) (UniProt Q5S007); assay: Inhibition of LRRK2 at 10 uM
[33] = biological target: NT-3 growth factor receptor (Homo sapiens) (UniProt Q16288); assay: Inhibition of TRKC at 10 uM
[34] = biological target: Myosin light chain kinase 2, skeletal/cardiac muscle (Homo sapiens) (UniProt Q9H1R3); assay: Inhibition of MYLK2 at 10 uM
Sequence of Myosin light chain kinase 2, skeletal/cardiac muscle (Homo sapiens) (Q9H1R3 whole entry): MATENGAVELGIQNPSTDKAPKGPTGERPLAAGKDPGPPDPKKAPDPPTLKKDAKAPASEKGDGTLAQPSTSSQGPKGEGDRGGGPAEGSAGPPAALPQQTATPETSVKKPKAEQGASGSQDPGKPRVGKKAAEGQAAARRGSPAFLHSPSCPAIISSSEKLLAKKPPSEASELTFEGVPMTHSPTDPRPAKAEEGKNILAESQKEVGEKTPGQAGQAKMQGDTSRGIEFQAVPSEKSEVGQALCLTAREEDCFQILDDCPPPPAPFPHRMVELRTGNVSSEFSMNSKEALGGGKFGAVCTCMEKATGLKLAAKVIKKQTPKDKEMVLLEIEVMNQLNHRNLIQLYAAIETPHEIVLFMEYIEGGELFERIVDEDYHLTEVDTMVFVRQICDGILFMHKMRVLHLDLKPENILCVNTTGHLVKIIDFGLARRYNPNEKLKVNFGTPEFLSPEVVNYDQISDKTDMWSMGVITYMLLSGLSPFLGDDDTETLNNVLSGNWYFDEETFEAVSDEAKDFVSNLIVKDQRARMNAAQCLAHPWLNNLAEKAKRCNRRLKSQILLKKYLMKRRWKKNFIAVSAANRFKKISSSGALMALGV

[35] = biological target: Inhibitor of nuclear factor kappa-B kinase subunit epsilon (Homo sapiens) (UniProt Q14164); assay: Inhibition of IKKepsilon at 10 uM
[36] = biological target: Tyrosine-protein kinase Srms (Homo sapiens) (UniProt Q9H3Y6); assay: Inhibition of SRMS at 10 uM
Sequence of Tyrosine-protein kinase Srms (Homo sapiens) (Q9H3Y6 whole entry, looked up): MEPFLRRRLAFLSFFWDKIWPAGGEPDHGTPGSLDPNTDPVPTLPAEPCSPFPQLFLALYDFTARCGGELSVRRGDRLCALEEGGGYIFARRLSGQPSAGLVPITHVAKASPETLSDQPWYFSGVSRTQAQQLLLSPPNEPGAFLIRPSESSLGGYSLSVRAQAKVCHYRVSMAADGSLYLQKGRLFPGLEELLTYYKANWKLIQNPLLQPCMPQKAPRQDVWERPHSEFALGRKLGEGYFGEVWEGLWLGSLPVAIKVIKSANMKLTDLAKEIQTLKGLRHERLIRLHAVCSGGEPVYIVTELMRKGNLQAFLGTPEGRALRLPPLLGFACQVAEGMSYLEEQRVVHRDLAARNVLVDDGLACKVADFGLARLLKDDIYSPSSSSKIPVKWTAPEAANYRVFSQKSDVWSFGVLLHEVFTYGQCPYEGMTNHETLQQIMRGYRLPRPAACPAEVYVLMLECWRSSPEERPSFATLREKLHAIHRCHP

[37] = biological target: Insulin receptor-related protein (Homo sapiens) (UniProt P14616); assay: Inhibition of INSRR at 10 uM
[38] = biological target: Cyclin-dependent kinase 5/CDK5 activator 1 (Homo sapiens) (UniProt Q00535+Q15078); assay: Inhibition of CDK5/p25 at 10 uM; type: protein-complex assay
[39] = biological target: Vascular endothelial growth factor receptor 1 (Homo sapiens) (UniProt P17948); assay: Inhibition of FLT1 at 10 uM
[40] = system: Tyrosine-protein kinase ABL1 (Homo sapiens), P00519 [E255K]; assay: Inhibition of ABL1 E255K (mutant) at 10 uM
[41] = biological target: Tyrosine-protein kinase Lyn (Homo sapiens) (UniProt P07948); assay: Inhibition of LYN A at 10 uM
[42] = biological target: Serine/threonine-protein kinase PLK2 (Homo sapiens) (UniProt Q9NYY3); assay: Inhibition of PLK2 at 10 uM
[43] = biological target: Serine/threonine-protein kinase D3 (Homo sapiens) (UniProt O94806); assay: Inhibition of PKD3 at 10 uM
[44] = biological target: Death-associated protein kinase 1 (Homo sapiens) (UniProt P53355); assay: Inhibition of DAPK1 at 10 uM
[45] = biological target: Serine/threonine-protein kinase TAO1 (Homo sapiens) (UniProt Q7L7X3); assay: Inhibition of TAO1 at 10 uM

Cc1cc(OCc2ccc(F)cc2F)c(Br)c(=O)n1Cc1ccc(CN(C)C)cc1
44 nM: IC50 (PBMC)
4.97 h: half-life [14]
< 50%: inhibition [1] | inhibition [2] | inhibition [3] | inhibition [4] | inhibition [5] | inhibition [6] | inhibition [7] | inhibition [8] | inhibition [9] | inhibition [10] | inhibition [11] | inhibition [12] | inhibition [13] | inhibition [15] | inhibition [16] | inhibition [17] | inhibition [18] | inhibition [19] | inhibition [20] | inhibition [21] | inhibition [22] | inhibition [23] | inhibition [24] | inhibition [25] | inhibition [26] | inhibition [27] | inhibition [28] | inhibition [29] | inhibition [30] | inhibition [31] | inhibition [32] | inhibition [33] | inhibition [34] | inhibition [35] | inhibition [36] | inhibition [37] | inhibition [38] | inhibition [39] | inhibition [40] | inhibition [41] | inhibition [42] | inhibition [43] | inhibition [44] | inhibition [45]
